Columns and labels:
[1] = system: HKB-11 human lymphoma cells; test: Alamar Blue antiproliferative assay, HKB-11; type: cell-based; settings: HKB-11, 72 h, single postbiotics, GraphPad Prism nonlinear regression, read-out: IC50 (concentration required to inhibit 50% of cell growth)
Experimental: The cell viability of the HKB-11, Hs 313.T, and HS-5 cells after treatment with different concentrations of the seven different postbiotics, including SCFA salts (magnesium acetate, sodium propionate, and sodium butyrate), UA and UB, purine nucleoside (inosine), and bacteriocin (N), was determined using the Alamar Blue assay as per the method described earlier. Briefly, 100 μL of cells was cultured in 96-well plates at a 3 × 10^5 cells/mL seeding density. After 24 h, the cells were treated with 16,000 µM of each postbiotic except for the urolithins, which were applied at 500 µM using a 1:2 serial dilution across a 10-point dose–response curve, followed by a 72 h incubation. A positive control using doxorubicin was prepared at a concentration of 4 μM, and an untreated control with 0.1% DMSO was added to every plate. At the end of the incubation period, the culture media were removed, and 100 μL of a 0.1 mg/mL Alamar Blue solution (resazurin, prepared as a stock solution at 1 mg/mL in freshly made PBS, followed by a 1:10 dilution with serum-free media) was added to each well. The fluorescence levels were assessed using a microplate spectrophotometer (BMG CLARIOstar, Mornington, VIC, Australia) with an excitation wavelength of 555 nm and emission measurement at 595 nm. The compounds were tested in triplicate, with the untreated control taken as 100% cell viability.
Data were collected and managed using MS Office Excel and GraphPad Prism for statistical analyses and visualisation. Data collection and analyses were carried out in triplicate, and the outcomes were presented as the mean ± standard deviation. Statistical significance between the mean values was determined at p ≤ 0.05 employing a two-way ANOVA. Tukey and Dunnett’s tests were utilised within GraphPad Prism software to perform nonlinear regression and multiple comparisons. Furthermore, GraphPad Prism software computed the IC50 value (representing the drug concentration required to achieve a 50% cell growth inhibition). The experimental groups in the proteomics study were compared statistically using unpaired t-tests, assuming equal variances. Candidate proteins were selected based on an absolute log2 fold change ≥ 0.58 and a Q-value ≤ 0.05. Enrichment analysis was subsequently conducted using Ingenuity Pathway Analysis (IPA), applying a significance threshold of adjusted Q ≤ 0.05 to identify functionally enriched pathways, focusing on those with an absolute z-score of ≥1.

[2] = system: HKB-11 lymphoma cells; test: ROS production, H2DCFDA assay; type: cell-based, human; settings: 4 h
Experimental: Briefly, HKB-11 lymphoma cells (2.5 × 10^5 cells/mL) were cultured in a 96-well plate, allowed to adhere overnight, and treated with 20 μM H2DCFDA for 45 min to assess ROS levels. The dye solution was removed, and cells were washed with 1× buffer. Next, the cells were treated with N (8000 μM), N (4000 μM), UB (500 μM), UB (250 μM), N/UB (3500 μM), N/UB (1750 μM), N/UB (5750 μM), N/UB (2875 μM), Dox (4 μM), and tert-butyl hydroperoxide (TBHP) (150 μM) and then incubated at 37 °C for 4 h. Finally, the plate was immediately read at Ex/Em = 485/535 nm using a microplate spectrophotometer (BMG CLARIOstar, VIC, Australia). The fold change in ROS production was determined relative to the untreated control (cells treated with the supplement buffer according to the manufacturer’s protocol).

| Compound | IC50 [1] | ROS levels compared to the untreated control ([2]; HKB-11, 500 μM and 250 μM, p ≥ 0.05, n = 3) | ROS levels compared to the untreated control ([2]; HKB-11, 8000 μM, p ≤ 0.01, n = 3) |
| --- | --- | --- | --- |
| O=c1oc2cc(O)ccc2c2ccccc12 [UB, Urolithin B] | 87.6 µM | minimal changes | – |
| Nisin (ITSISLCTPGCKTGALMGCNMKTATCHCSIHVSK; Lantibiotic nisin-A; UniProt P13068 24-57, looked up) [34-amino-acid lantibiotic peptide (bacteriocin) produced by Lactococcus lactis; purchased] | 1470 µM | – | statistically significant increase |
